Data reported in paper PMC12121777 (PLOS One, 2025).
In brackets after ≈: the same amount, converted by molar mass. Like-named read-outs stand apart in the source and are kept apart here.

Tests used:
[1] = system: Mtb 331/88 (i.e., H37Rv); experiment: MIC, micro method in Šula's semisynthetic medium, drug-susceptible Mtb; format: cell-based, Mycobacterium tuberculosis; settings: for MIC: Mycobacterium tuberculosis, H37RV
[2] = system: HepG2 cells; experiment: Cytotoxicity on HepG2 cell line (CellTiter 96); format: cell-based, human; settings: for IC50: Homo sapiens, read-out: IC50 HepG2
[3] = system: Mycobacterium kansasii 6509/96; experiment: MIC, micro method in Šula's semisynthetic medium, M. kansasii clinical isolate; format: cell-based; settings: read-out: MIC M. kansasii 6509/96
[4] = system: Mycobacterium avium 330/88; experiment: MIC, micro method in Šula's semisynthetic medium, M. avium; format: cell-based
[5] = system: Mtb H37Rv; experiment: Metabolic labeling with 14C acetate and TLC lipid analysis; settings: 10× and 100× MIC, 14C acetate, 24 h
[6] = system: Mtb H37Ra pVV2-dprE1/dprE2; experiment: microbe, parasite or virus in culture; format: cell-based; settings: Mycobacterium tuberculosis, 672 h, 28 days
[7] = system: Mtb H37Ra pVV2-dprE2; experiment: microbe, parasite or virus in culture; format: cell-based; settings: Mycobacterium tuberculosis, 672 h, 28 days
[8] = system: Mtb H37Ra pVV2; experiment: microbe, parasite or virus in culture; format: cell-based; settings: Mycobacterium tuberculosis, 672 h, 28 days
[9] = 330/88, 336 h, read-out: MIC M. avium 330/88
[10] = 330/88, 504 h, read-out: MIC M. avium 330/88

For `CCCCCCNc1nnc(-c2cc([N+](=O)[O-])cc([N+](=O)[O-])c2)o1` [Compound 5f, 5-(3,5-Dinitrophenyl)-N-hexyl-1,3,4-oxadiazol-2-amine], the MIC ([1]; 336 h, 14 days) was no more than 0.03 µM, the MIC ([1]; 504 h, 21 days) was no more than 0.03 µM and the “fold more potent than precursor 4 against Mtb” value ([1]; oxadiazole 5 vs hydrazinecarboxamide 4 counterpart) was no less than 33.3 fold. For the same compound, the IC50 ([2]; HepG2, 24 h) was greater than 100 µM, the “selectivity (SI) for M. avium” value ([2]; ratio of IC50 (HepG2) to MIC) was greater than 100 and the MIC ([3]; 6509/96, 168 h) was 0.25 µM (≈ 0.0838 µg/mL). It also gave an MIC ([3]; 6509/96, 336 h) of 0.5 µM (≈ 0.168 µg/mL), an MIC ([3]; 6509/96, 504 h) of 0.5 µM (≈ 0.168 µg/mL) and an MIC [4, 9] of no more than 1 µM. The MIC [4, 10] was no more than 1 µM and the MIC ([4]; 330/88, read-out: MIC M. avium) was 1 µM (≈ 0.335 µg/mL).

`CCCCCCCCNc1nnc(-c2cc([N+](=O)[O-])cc([N+](=O)[O-])c2)o1` [Compound 5h, 5-(3,5-Dinitrophenyl)-N-octyl-1,3,4-oxadiazol-2-amine] gave an MIC ([1]; 336 h, 14 days) of 0.06 µM (≈ 0.0218 µg/mL), an MIC ([1]; 504 h, 21 days) of 0.06 µM (≈ 0.0218 µg/mL) and an IC50 ([2]; HepG2, 24 h) greater than 100 µM. It also gave an MIC ([3]; 6509/96, 168 h) of no more than 0.03 µM, an MIC ([3]; 6509/96, 336 h) of 0.06 µM (≈ 0.0218 µg/mL) and an MIC ([3]; 6509/96, 504 h) of 0.06 µM (≈ 0.0218 µg/mL). For the same compound, the MIC [4, 9] was 8 µM (≈ 2.91 µg/mL) and the MIC [4, 10] was 16 µM (≈ 5.81 µg/mL).

`CCCCCCCCCNc1nnc(-c2cc([N+](=O)[O-])cc([N+](=O)[O-])c2)o1` [Compound 5i, 5-(3,5-Dinitrophenyl)-N-nonyl-1,3,4-oxadiazol-2-amine] showed an MIC ([1]; 336 h, 14 days) of 0.06 µM (≈ 0.0226 µg/mL), an MIC ([1]; 504 h, 21 days) of 0.06 µM (≈ 0.0226 µg/mL) and an IC50 ([2]; HepG2, 24 h) greater than 100 µM. It also gave an MIC ([3]; 6509/96, 168 h) of no more than 0.03 µM, an MIC ([3]; 6509/96, 336 h) of 0.06 µM (≈ 0.0226 µg/mL) and an MIC ([3]; 6509/96, 504 h) of 0.06 µM (≈ 0.0226 µg/mL). For the same compound, the MIC [4, 9] was 8 µM (≈ 3.02 µg/mL) and the MIC [4, 10] was 16 µM (≈ 6.04 µg/mL).

`CCCCCCCCCCNc1nnc(-c2cc([N+](=O)[O-])cc([N+](=O)[O-])c2)o1` [Compound 5j, N-Decyl-5-(3,5-dinitrophenyl)-1,3,4-oxadiazol-2-amine] gave an MIC ([1]; 336 h, 14 days) of 0.5 µM (≈ 0.196 µg/mL), an MIC ([1]; 504 h, 21 days) of 1 µM (≈ 0.391 µg/mL) and an IC50 ([2]; HepG2, 24 h) greater than 100 µM. It also gave an MIC ([3]; 6509/96, 168 h) of 1 µM (≈ 0.391 µg/mL), an MIC ([3]; 6509/96, 336 h) of 1 µM (≈ 0.391 µg/mL) and an MIC ([3]; 6509/96, 504 h) of 1 µM (≈ 0.391 µg/mL). The MIC [4, 9] was 4 µM (≈ 1.57 µg/mL) and the MIC [4, 10] was 8 µM (≈ 3.13 µg/mL).

Work on `CCCCCCCCCCCNc1nnc(-c2cc([N+](=O)[O-])cc([N+](=O)[O-])c2)o1` [Compound 5k, 5-(3,5-Dinitrophenyl)-N-undecyl-1,3,4-oxadiazol-2-amine] yielded an MIC ([1]; 336 h, 14 days) of 0.5 µM (≈ 0.203 µg/mL), an MIC ([1]; 504 h, 21 days) of 1 µM (≈ 0.405 µg/mL) and an IC50 ([2]; HepG2, 24 h) greater than 50 µM. For the same compound, the MIC ([3]; 6509/96, 168 h) was 1 µM (≈ 0.405 µg/mL), the MIC ([3]; 6509/96, 336 h) was 1 µM (≈ 0.405 µg/mL) and the MIC ([3]; 6509/96, 504 h) was 1 µM (≈ 0.405 µg/mL). For the same compound, the MIC [4, 9] was 4 µM (≈ 1.62 µg/mL) and the MIC [4, 10] was 4 µM (≈ 1.62 µg/mL).

Compound `CCCCCCCCCCCCNc1nnc(-c2cc([N+](=O)[O-])cc([N+](=O)[O-])c2)o1` [Compound 5l, 5-(3,5-Dinitrophenyl)-N-dodecyl-1,3,4-oxadiazol-2-amine] has an MIC ([1]; 336 h, 14 days) of 1 µM (≈ 0.419 µg/mL), an MIC ([1]; 504 h, 21 days) of 1 µM (≈ 0.419 µg/mL) and an IC50 ([2]; HepG2, 24 h) greater than 50 µM. The MIC ([3]; 6509/96, 168 h) was 1 µM (≈ 0.419 µg/mL), the MIC ([3]; 6509/96, 336 h) was 1 µM (≈ 0.419 µg/mL) and the MIC ([3]; 6509/96, 504 h) was 1 µM (≈ 0.419 µg/mL). It also gave an MIC [4, 9] of 4 µM (≈ 1.68 µg/mL) and an MIC [4, 10] of 8 µM (≈ 3.36 µg/mL).

Compound `CCCCCCCCCCCCCNc1nnc(-c2cc([N+](=O)[O-])cc([N+](=O)[O-])c2)o1` [Compound 5m, 5-(3,5-Dinitrophenyl)-N-tridecyl-1,3,4-oxadiazol-2-amine] has an MIC ([1]; 336 h, 14 days) of 0.125 µM (≈ 0.0542 µg/mL), an MIC ([1]; 504 h, 21 days) of 0.5 µM (≈ 0.217 µg/mL) and an IC50 ([2]; HepG2, 24 h) greater than 50 µM. For the same compound, the MIC ([3]; 6509/96, 168 h) was no more than 0.03 µM, the MIC ([3]; 6509/96, 336 h) was 0.06 µM (≈ 0.026 µg/mL) and the MIC ([3]; 6509/96, 504 h) was 0.125 µM (≈ 0.0542 µg/mL). The MIC [4, 9] was 8 µM (≈ 3.47 µg/mL) and the MIC [4, 10] was 16 µM (≈ 6.94 µg/mL).

`CCCCCCCCCCCCCCNc1nnc(-c2cc([N+](=O)[O-])cc([N+](=O)[O-])c2)o1` [Compound 5n, 5-(3,5-Dinitrophenyl)-N-tetradecyl-1,3,4-oxadiazol-2-amine] showed an MIC ([1]; 336 h, 14 days) of 1 µM (≈ 0.448 µg/mL), an MIC ([1]; 504 h, 21 days) of 1 µM (≈ 0.448 µg/mL) and an IC50 ([2]; HepG2, 24 h) greater than 50 µM. For the same compound, the MIC ([3]; 6509/96, 168 h) was 0.25 µM (≈ 0.112 µg/mL), the MIC ([3]; 6509/96, 336 h) was 0.5 µM (≈ 0.224 µg/mL) and the MIC ([3]; 6509/96, 504 h) was 1 µM (≈ 0.448 µg/mL). It also gave an MIC [4, 9] of 8 µM (≈ 3.58 µg/mL) and an MIC [4, 10] of 16 µM (≈ 7.16 µg/mL).

For `CCCCCCCCCCCCCCCNc1nnc(-c2cc([N+](=O)[O-])cc([N+](=O)[O-])c2)o1` [Compound 5o, 5-(3,5-Dinitrophenyl)-N-pentadecyl-1,3,4-oxadiazol-2-amine], the MIC ([1]; 336 h, 14 days) was 2 µM (≈ 0.923 µg/mL), the MIC ([1]; 504 h, 21 days) was 2 µM (≈ 0.923 µg/mL) and the IC50 ([2]; HepG2, 24 h) was greater than 50 µM. The MIC ([3]; 6509/96, 168 h) was 0.5 µM (≈ 0.231 µg/mL), the MIC ([3]; 6509/96, 336 h) was 1 µM (≈ 0.462 µg/mL) and the MIC ([3]; 6509/96, 504 h) was 2 µM (≈ 0.923 µg/mL). The MIC [4, 9] was 8 µM (≈ 3.69 µg/mL) and the MIC [4, 10] was 16 µM (≈ 7.39 µg/mL).

For `CCCCCCCCCCCCNc1nnc(-c2cc([N+](=O)[O-])cc([N+](=O)[O-])c2)s1` [Compound 5s, 5-(3,5-Dinitrophenyl)-N-dodecyl-1,3,4-thiadiazol-2-amine], the “lipid profile of treated cells vs untreated cells” value [5] was “accumulation of TMM and TDM”, the MIC ([1]; 336 h, 14 days) was 1 µM (≈ 0.436 µg/mL) and the MIC ([1]; 504 h, 21 days) was 1 µM (≈ 0.436 µg/mL). The MIC ([3]; 6509/96, 168 h) was 1 µM (≈ 0.436 µg/mL), the MIC ([3]; 6509/96, 336 h) was 1 µM (≈ 0.436 µg/mL) and the MIC ([3]; 6509/96, 504 h) was 1 µM (≈ 0.436 µg/mL). It also gave an MIC [6] of 0.5 µM (≈ 0.218 µg/mL), an MIC [4, 9] of 64 µM (≈ 27.9 µg/mL) and an MIC [4, 10] of 125 µM (≈ 54.4 µg/mL). The MIC [7] was less than 0.1 µM and the MIC [8] was less than 0.1 µM.

Work on `NNC(=O)c1ccncc1` [INH, isoniazid, reference compound] yielded an MIC ([1]; 336 h, 14 days) of 0.5 µM (≈ 0.0686 µg/mL), an MIC ([1]; 504 h, 21 days) of 0.5 µM (≈ 0.0686 µg/mL) and an IC50 ([2]; HepG2, 24 h incubation) greater than 1000 µM. It also gave an MIC ([3]; 6509/96, 168 h, 7 days) of 4 µM (≈ 0.549 µg/mL), an MIC ([3]; 6509/96, 336 h, 14 days) of 8 µM (≈ 1.1 µg/mL) and an MIC ([3]; 6509/96, 504 h, 21 days) of 8 µM (≈ 1.1 µg/mL). The MIC ([4]; 330/88, 336 h, 14 days, * = growth still observed at this concentration, turbidity or precipitate above, read-out: MIC M. avium 330/88) was greater than 250 µM and the MIC ([4]; 330/88, 504 h, 21 days, * = growth still observed at this concentration, turbidity or precipitate above, read-out: MIC M. avium 330/88) was greater than 250 µM.
